Tested on: Cd36 mRNA
Test: RT-PCR of Cd36 mRNA in brains of APP23 mice
Assay type: in vivo, mouse
Conditions: Am80 0.5 and/or HX630 5 mg/kg/d, day 18
Experimental: APP23 mice begin forming amyloid deposits when they are 6 months old, but memory deficits in the MWM test appear quite early (before 3 months of age). Here, we used 8.5-month-old male APP23 mice and their WT littermates (C57BL/6J). We used stratified random sampling to divide mice (four to six per cage) into four groups to equalize the mean body weight of the study groups: mice given 0.5 mg/kg/d Am80, those given 5 mg/kg/d HX630, those given the mixture of 0.5 mg/kg/d Am80 and 5 mg/kg/d HX630, and those given the vehicle. Am80 and HX630 were suspended in 0.5% (w/v) carboxymethylcellulose solution and were orally administered to mice at 0.5 mg/kg (Am80) or 5 mg/kg (HX630) for 17 consecutive days (once daily at 18:00). Control animals received the same volume of 0.5% (w/v) carboxymethylcellulose solution orally, without the other compounds. […]
For semi-quantitative RT-PCR analysis, PCRs were carried out with Quick Taq HS DyeMix (DTM-101; Toyobo Co. Ltd., Osaka, Japan). […] Semi-quantitative PCR consisted of an initial denaturation cycle at 94° C. for 2 min, followed by 40 cycles for Cd36, 35 cycles for Mme, 30 cycles for Ide, and 26 cycles for β-actin. […] Densitometric quantification was done with the Image Gauge software program (Fuji Photo Film Co., Tokyo, Japan). […]

In the case of `CN1c2ccccc2N=C(c2ccc(C(=O)O)cc2)c2cc3c(cc21)C(C)(C)CCC3(C)C` [HX630, 4-[5H-2,3-(2,5dimethyl-2,5-hexano)-5-methyldibenzo[b,e]-diazepin-11-yl]benzoic acid], the “Cd36 mRNA level” value is reported as “increased”.

Reference: patent publication US9861640B2, “Medicament for treatment of Alzheimer's disease” (KEMPHYS LTD., priority 2013, dated 2018)
